Measured values from ChEMBL document CHEMBL1909046, “DrugMatrix in vitro pharmacology data”.
pIC50: −log10 of the molar value.

Assays:
Cytochrome P450 2C9 = Cytochrome P450 2C9 (Homo sapiens, UniProt P11712); conditions: bti-tn-5b1-4; also: in other assays of this panel Not Active means under 50% inhibition at 10 µM
[1] = DRUGMATRIX: Leukotriene, BLT (LTB4) radioligand binding (ligand: [3H]LTB4); assay type: cell membranes, Membrane; conditions: u-937; Not Active = under 50% inhibition at 10 µM
Cytochrome P450 2E1 = Cytochrome P450 2E1 (Homo sapiens, UniProt P05181); conditions: bti-tn-5b1-4; also: in other assays of this panel Not Active means under 50% inhibition at 10 µM
[2] = molecular target: T1, 3-hydroxy-3-methylglutaryl-coenzyme A reductase (Homo sapiens, UniProt P04035); set-up: species or system Escherichia coli;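 also: enzyme inhibition assay of HMG-CoA reductase using radiolabeled [14C]HMG-CoA as substrate; in other assays of this panel Not Active means under 50% inhibition at 10 µM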
T1 sequence (P04035 whole entry): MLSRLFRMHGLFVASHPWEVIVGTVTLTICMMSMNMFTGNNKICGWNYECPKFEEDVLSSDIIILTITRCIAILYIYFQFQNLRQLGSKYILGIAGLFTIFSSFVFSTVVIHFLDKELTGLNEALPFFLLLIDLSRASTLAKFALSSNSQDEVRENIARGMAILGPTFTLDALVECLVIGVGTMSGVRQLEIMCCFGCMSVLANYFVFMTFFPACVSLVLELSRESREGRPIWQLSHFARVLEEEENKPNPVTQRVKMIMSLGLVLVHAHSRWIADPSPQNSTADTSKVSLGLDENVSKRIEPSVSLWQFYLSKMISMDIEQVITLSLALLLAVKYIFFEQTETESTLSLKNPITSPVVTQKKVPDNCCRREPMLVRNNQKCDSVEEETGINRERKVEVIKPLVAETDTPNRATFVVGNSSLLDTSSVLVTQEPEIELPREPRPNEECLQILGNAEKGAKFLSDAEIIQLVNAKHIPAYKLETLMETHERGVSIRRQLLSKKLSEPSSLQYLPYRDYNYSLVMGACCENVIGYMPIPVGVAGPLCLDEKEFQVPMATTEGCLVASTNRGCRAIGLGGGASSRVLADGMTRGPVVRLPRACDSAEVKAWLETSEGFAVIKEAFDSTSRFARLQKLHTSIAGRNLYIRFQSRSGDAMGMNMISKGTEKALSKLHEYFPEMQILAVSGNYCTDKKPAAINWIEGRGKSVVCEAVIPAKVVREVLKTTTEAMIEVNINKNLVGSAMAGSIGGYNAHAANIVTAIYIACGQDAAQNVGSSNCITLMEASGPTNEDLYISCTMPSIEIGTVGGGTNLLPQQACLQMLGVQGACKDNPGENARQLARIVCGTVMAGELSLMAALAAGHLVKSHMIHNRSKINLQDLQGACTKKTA

[3] = molecular target: Tyrosine-protein kinase Lck (Homo sapiens, UniProt P06239); assay: DRUGMATRIX: Protein Tyrosine Kinase, LCK enzyme inhibition (substrate: Poly(Glu:Tyr)); assay type: cell-based, Insect cells; conditions: insect cells; Not Active = under 50% inhibition at 10 µM
[4] = molecular target: Aldo-keto reductase family 1 member B1 (Rattus norvegicus, UniProt P07943); assay: biochemical; assay type: tissue-based, Lens of camera-type eye; conditions: for pIC50: read-out: IC50;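 as to all read-outs here: inhibition of aldose reductase enzyme activity, measured with DL-glyceraldehyde as the substrate; in other assays of this panel Not Active means under 50% inhibition at 10 µM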
Glucocorticoid receptor = molecular target: T2, Glucocorticoid receptor (Homo sapiens, UniProt P04150); conditions: hela s3; also: in other assays of this panel Not Active means under 50% inhibition at 10 µM
T2 sequence (P04150 whole entry): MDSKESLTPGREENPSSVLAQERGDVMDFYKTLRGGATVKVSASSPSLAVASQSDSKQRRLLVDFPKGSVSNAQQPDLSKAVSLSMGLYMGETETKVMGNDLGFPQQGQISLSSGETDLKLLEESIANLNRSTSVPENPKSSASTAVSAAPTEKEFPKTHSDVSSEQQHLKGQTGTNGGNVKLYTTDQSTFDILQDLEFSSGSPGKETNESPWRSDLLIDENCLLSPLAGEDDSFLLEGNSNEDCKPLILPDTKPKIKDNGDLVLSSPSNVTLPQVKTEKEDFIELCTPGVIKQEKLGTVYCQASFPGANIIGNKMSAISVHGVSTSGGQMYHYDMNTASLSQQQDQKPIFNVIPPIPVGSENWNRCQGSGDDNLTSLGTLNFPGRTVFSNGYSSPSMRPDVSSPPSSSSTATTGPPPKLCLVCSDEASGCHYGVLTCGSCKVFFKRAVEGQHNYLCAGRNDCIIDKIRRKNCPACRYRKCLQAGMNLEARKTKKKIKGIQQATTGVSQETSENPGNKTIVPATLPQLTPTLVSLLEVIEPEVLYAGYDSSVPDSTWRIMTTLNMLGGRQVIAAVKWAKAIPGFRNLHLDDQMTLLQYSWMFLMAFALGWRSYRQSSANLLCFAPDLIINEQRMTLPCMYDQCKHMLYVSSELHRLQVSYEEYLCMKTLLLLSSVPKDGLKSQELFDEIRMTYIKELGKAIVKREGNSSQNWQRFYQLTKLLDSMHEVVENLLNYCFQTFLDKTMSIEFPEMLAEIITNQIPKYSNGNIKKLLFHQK

Sequence of Cytochrome P450 2E1 (P05181 whole entry): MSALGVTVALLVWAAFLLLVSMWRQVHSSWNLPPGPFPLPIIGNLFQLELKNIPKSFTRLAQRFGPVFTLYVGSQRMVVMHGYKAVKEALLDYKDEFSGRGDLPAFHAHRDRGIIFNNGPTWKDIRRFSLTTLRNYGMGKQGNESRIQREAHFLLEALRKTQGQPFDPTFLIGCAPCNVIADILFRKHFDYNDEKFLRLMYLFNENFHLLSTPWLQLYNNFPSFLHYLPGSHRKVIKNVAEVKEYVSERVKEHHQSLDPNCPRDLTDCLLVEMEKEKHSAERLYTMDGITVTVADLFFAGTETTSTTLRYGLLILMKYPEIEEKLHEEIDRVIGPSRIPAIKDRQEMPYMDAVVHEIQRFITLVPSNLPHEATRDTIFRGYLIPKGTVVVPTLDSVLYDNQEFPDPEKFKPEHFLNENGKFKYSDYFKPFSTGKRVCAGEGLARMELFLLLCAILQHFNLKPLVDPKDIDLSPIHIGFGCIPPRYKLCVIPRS
Sequence of Tyrosine-protein kinase Lck (P06239 whole entry): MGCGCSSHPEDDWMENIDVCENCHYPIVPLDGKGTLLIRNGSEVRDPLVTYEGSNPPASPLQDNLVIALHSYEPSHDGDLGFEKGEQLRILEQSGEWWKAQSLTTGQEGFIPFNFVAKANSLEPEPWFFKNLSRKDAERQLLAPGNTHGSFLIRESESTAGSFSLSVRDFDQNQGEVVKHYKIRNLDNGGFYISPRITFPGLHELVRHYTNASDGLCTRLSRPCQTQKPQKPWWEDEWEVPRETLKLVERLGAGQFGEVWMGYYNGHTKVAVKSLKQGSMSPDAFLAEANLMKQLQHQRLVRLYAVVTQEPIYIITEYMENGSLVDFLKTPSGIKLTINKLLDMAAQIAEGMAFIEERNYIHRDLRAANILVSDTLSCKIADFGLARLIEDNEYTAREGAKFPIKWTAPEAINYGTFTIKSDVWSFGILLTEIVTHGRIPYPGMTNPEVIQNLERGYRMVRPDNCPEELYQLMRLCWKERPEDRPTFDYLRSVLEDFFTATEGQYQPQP
Sequence of Cytochrome P450 2C9 (P11712 whole entry): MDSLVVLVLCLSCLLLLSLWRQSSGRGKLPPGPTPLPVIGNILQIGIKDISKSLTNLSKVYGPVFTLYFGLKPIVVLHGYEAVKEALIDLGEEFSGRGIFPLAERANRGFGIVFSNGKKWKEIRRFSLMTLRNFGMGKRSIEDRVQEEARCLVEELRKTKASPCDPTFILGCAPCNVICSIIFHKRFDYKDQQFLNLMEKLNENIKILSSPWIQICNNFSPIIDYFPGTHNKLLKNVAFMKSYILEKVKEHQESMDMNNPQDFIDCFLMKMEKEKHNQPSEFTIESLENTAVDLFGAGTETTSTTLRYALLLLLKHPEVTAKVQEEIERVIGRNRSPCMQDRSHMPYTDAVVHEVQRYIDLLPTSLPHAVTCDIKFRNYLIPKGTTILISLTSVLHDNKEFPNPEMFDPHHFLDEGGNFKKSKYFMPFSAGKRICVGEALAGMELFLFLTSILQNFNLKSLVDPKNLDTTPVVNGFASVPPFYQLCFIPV

Compound | IC50 (Cytochrome P450 2C9) | Ki (Cytochrome P450 2C9) | IC50 [1] | Ki [1] | IC50 (Cytochrome P450 2E1) | Ki (Cytochrome P450 2E1) | IC50 [2] | IC50 [3] | IC50 [4] | IC50 (Glucocorticoid receptor) | Ki (Glucocorticoid receptor) | Ki [2] | Ki [4] | pIC50 [4]
COc1cc2nc(N3CCN(C(=O)C4COc5ccccc5O4)CC3)nc(N)c2cc1OC (stereo not drawn) [DOXAZOSIN] | Not Active | Not Active | Not Active | Not Active | Not Active | Not Active | Not Active | Not Active | Not Active |  |  |  |  | 
CC(C)(C)NCC(O)c1cc(Cl)c(N)c(Cl)c1 (stereo not drawn) [CLENBUTEROL] | Not Active | Not Active | Not Active | Not Active | Not Active | Not Active | Not Active | Not Active | Not Active |  |  |  |  | 
CC1Cc2ccccc2N1NC(=O)c1ccc(Cl)c(S(N)(=O)=O)c1 (stereo not drawn) [INDAPAMIDE] | Not Active | Not Active | Not Active | Not Active | Not Active | Not Active | Not Active | Not Active | Not Active |  |  |  |  | 
COc1cc2c3cc1Oc1cc(ccc1O)C[C@@H]1c4c(cc(OC)c(O)c4Oc4ccc(cc4)C[C@@H]3N(C)CC2)CC[N+]1(C)C.[Cl-] | Not Active | Not Active | Not Active | Not Active | Not Active | Not Active | Not Active | Not Active | Not Active |  |  |  |  | 
CCC(C)n1ncn(-c2ccc(N3CCN(c4ccc(OCC5COC(Cn6cncn6)(c6ccc(Cl)cc6Cl)O5)cc4)CC3)cc2)c1=O (stereo not drawn) [ITRACONAZOLE] | Not Active | Not Active | Not Active | Not Active | Not Active | Not Active | Not Active | Not Active | Not Active |  |  |  |  | 
CADMIUM ACETATE | Not Active | Not Active | Not Active | Not Active | Not Active | Not Active | Not Active |  | Not Active | Not Active | Not Active | Not Active | Not Active | 
C[C@]12CCC(=O)C=C1CC[C@@H]1[C@@H]2CC[C@@]2(C)[C@H]1CC[C@]2(C)O [METHYLTESTOSTERONE] | Not Active | Not Active | Not Active | Not Active | Not Active | Not Active | Not Active | Not Active | Not Active |  |  |  |  | 
O=c1oc2ccccc2c(O)c1Cc1c(O)c2ccccc2oc1=O [DICUMAROL] |  |  | Not Active | Not Active | Not Active | Not Active | Not Active | Not Active |  |  |  |  |  | 5.39
CC(C)C(Br)C(=O)NC(N)=O (stereo not drawn) [BROMISOVALUM] | Not Active | Not Active | Not Active | Not Active | Not Active | Not Active | Not Active | Not Active | Not Active |  |  |  |  | 
C[C@H]1c2cccc(O)c2C(=O)C2=C(O)[C@]3(O)C(=O)C(C(N)=O)=C(O)[C@@H](N(C)C)[C@@H]3[C@@H](O)[C@@H]21.O [DOXYCYCLINE] | Not Active | Not Active | Not Active | Not Active | Not Active | Not Active | Not Active | Not Active | Not Active |  |  |  |  | 
CNCCCN1c2ccccc2CCc2ccccc21 [DESIPRAMINE] | Not Active | Not Active | Not Active | Not Active | Not Active | Not Active | Not Active | Not Active | Not Active |  |  |  |  | 
C[C@]12CC[C@@H]3c4ccc(O)cc4CC[C@H]3[C@@H]1CCC2=O [ESTRONE] |  |  | Not Active | Not Active |  |  | Not Active | Not Active | Not Active |  |  |  |  | 
CN(C)CCCN1c2ccccc2Sc2ccccc21 [PROMAZINE] |  |  | Not Active | Not Active | Not Active | Not Active | Not Active | Not Active | Not Active |  |  |  |  | 
CC1(C)O[C@@H]2C[C@H]3[C@@H]4CCC5=CC(=O)CC[C@]5(C)[C@@]4(F)[C@@H](O)C[C@]3(C)[C@]2(C(=O)CCl)O1 [HALCINONIDE] | Not Active | Not Active | Not Active | Not Active | Not Active | Not Active | Not Active | Not Active | Not Active |  |  |  |  | 
CC1CC(OC(=O)C(O)c2ccccc2)CC(C)(C)C1 (stereo not drawn) [CYCLANDELATE] | Not Active | Not Active | Not Active | Not Active | Not Active | Not Active | Not Active | Not Active | Not Active |  |  |  |  | 
Sc1ncnc2nc[nH]c12 [MERCAPTOPURINE ANHYDROUS] | Not Active | Not Active | Not Active | Not Active | Not Active | Not Active | Not Active | Not Active | Not Active |  |  |  |  | 
O=C(O)CCCc1ccc(N(CCCl)CCCl)cc1 [CHLORAMBUCIL] | Not Active | Not Active | Not Active | Not Active | Not Active | Not Active | Not Active | Not Active |  |  |  |  |  | 5.03
CC(=O)O[C@@]12CO[C@@H]1C[C@H](O)[C@@]1(C)C(=O)[C@H](O)C3=C(C)[C@@H](OC(=O)[C@H](O)[C@@H](NC(=O)OC(C)(C)C)c4ccccc4)C[C@@](O)([C@@H](OC(=O)c4ccccc4)[C@H]21)C3(C)C.O.O.O [DOCETAXEL] | Not Active | Not Active | Not Active | Not Active | Not Active | Not Active | Not Active | Not Active | Not Active |  |  |  |  | 
C[C@](N)(Cc1ccc(O)c(O)c1)C(=O)O [METHYLDOPA] | Not Active | Not Active | Not Active | Not Active | Not Active | Not Active | Not Active | Not Active | Not Active |  |  |  |  | 
CCCCN1CCCC[C@H]1C(=O)Nc1c(C)cccc1C [LEVOBUPIVACAINE] | Not Active | Not Active | Not Active | Not Active | Not Active | Not Active | Not Active | Not Active | Not Active |  |  |  |  | 
CC(C)C(=O)Nc1ccc([N+](=O)[O-])c(C(F)(F)F)c1 [FLUTAMIDE] | Not Active | Not Active | Not Active | Not Active | Not Active | Not Active | Not Active | Not Active | Not Active |  |  |  |  | 
CCCC1O[C@@H]2C[C@H]3[C@@H]4CCC5=CC(=O)C=C[C@]5(C)[C@H]4[C@@H](O)C[C@]3(C)[C@]2(C(=O)CO)O1 (stereo partly drawn) [BUDESONIDE] | Not Active | Not Active | Not Active | Not Active | Not Active | Not Active | Not Active | Not Active | Not Active |  |  |  |  | 
